Among the data in PubChem BioAssay (NCI) are TGI and GI50 values, retold here.

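Growth conditions: 96-well plates. Treatment: test compound, 48 hours, 5 concentrations. Analysis: linear interpolation between bracketing concentrations; unreached endpoints set to highest concentration. Here, GI50 denotes the concentration required for 50% inhibition of growth. TGI is the concentration that stops growth completely.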

Test systems include RPMI-8226 leukemia; U251 CNS; NCI-H460 lung; SF-268 CNS; K-562 leukemia; MOLT-4 leukemia; OVCAR-5 ovarian; OVCAR-4 ovarian; SF-539 CNS; UO-31 renal.
Common to all, as to experiment: DTP human tumour cell line panel, 48 h

Regarding `O=C1CC(C2(O)C(=O)Nc3ccc([N+](=O)[O-])cc32)c2ccccc21` (stereo not given), the TGI in the assay on RPMI-8226 leukemia is 57.5 µM; in the assay with U251 CNS, 37.8 µM; with NCI-H460 lung, 29.9 µM; with SF-268 CNS, 54.7 µM; in the assay with K-562 leukemia, 60.6 µM; with MOLT-4 leukemia, 57.7 µM. Further, the TGI is over 100 µM with OVCAR-5 ovarian, 88.1 µM in the assay with OVCAR-4 ovarian, 64.1 µM with SF-539 CNS and over 100 µM in the assay on UO-31 renal.
Take `CC1CCCC(C#N)(NOC2=NCCN2)C1` (stereo not given): the GI50 with RPMI-8226 leukemia was 38 µM; in the assay with U251 CNS it was 23.4 µM; in the assay with NCI-H460 lung, 43.3 µM; in the assay with SF-268 CNS, 60.3 µM; in the assay on K-562 leukemia it was 17.4 µM; in the assay on MOLT-4 leukemia it was 10.7 µM. Moreover, the GI50 with OVCAR-5 ovarian is over 100 µM; with OVCAR-4 ovarian it was 48.3 µM; in the assay on SF-539 CNS it was 15.5 µM; with UO-31 renal it was 31.8 µM. Besides, the TGI with RPMI-8226 leukemia is over 100 µM; with U251 CNS, 78.7 µM; in the assay with NCI-H460 lung it was over 100 µM; with SF-268 CNS, over 100 µM; with K-562 leukemia it was 61.5 µM; with MOLT-4 leukemia, over 100 µM. For the same molecule, the TGI is over 100 µM with OVCAR-5 ovarian, over 100 µM with OVCAR-4 ovarian, 40.4 µM in the assay with SF-539 CNS and over 100 µM with UO-31 renal.
On to `COc1c(OC)c(OC)c2c(=O)cc(-c3ccc(OC(C)C)cc3)oc2c1OC`, for which the TGI in the assay with RPMI-8226 leukemia is 23.7 µM; in the assay with U251 CNS, over 52 µM; in the assay with NCI-H460 lung, over 56.6 µM; in the assay with SF-268 CNS it was over 51.8 µM; in the assay with K-562 leukemia it was over 100 µM; with MOLT-4 leukemia, 23.8 µM. Further, the TGI with OVCAR-5 ovarian is over 51.9 µM; in the assay with OVCAR-4 ovarian, over 49.2 µM; in the assay with SF-539 CNS, 51.2 µM; in the assay on UO-31 renal it was over 47.3 µM.
As to `CCCC(O)c1cn(-c2cccc(S(=O)(=O)O)c2)nn1` (stereo not given), the TGI with RPMI-8226 leukemia, in the assay with U251 CNS, in the assay with NCI-H460 lung, in the assay on SF-268 CNS, in the assay with K-562 leukemia and in the assay on MOLT-4 leukemia was over 100 µM each time. Further, the TGI with OVCAR-5 ovarian, in the assay with OVCAR-4 ovarian, with SF-539 CNS and with UO-31 renal was over 100 µM throughout.
With `CC1=NN(c2ccccc2)C(=O)C12[C@H](c1ccccc1)C2(C#N)C#N` (stereo not given in full), the TGI came to 4.08 µM in the assay on RPMI-8226 leukemia; 29.6 µM in the assay on U251 CNS; 41.5 µM in the assay with NCI-H460 lung; 20.6 µM in the assay on SF-268 CNS; 6.12 µM in the assay with K-562 leukemia; 3.1 µM in the assay with MOLT-4 leukemia. Also, the total growth inhibition concentration (TGI) amounted to 24.2 µM in the assay with OVCAR-5 ovarian, 17.5 µM with OVCAR-4 ovarian, 27.7 µM in the assay with SF-539 CNS and 27.9 µM in the assay on UO-31 renal.
Regarding `FC(F)c1ncc(-c2ccc(C(F)(F)F)cc2)c(NC2CCCCCC2)n1`, the GI50 in the assay on RPMI-8226 leukemia, in the assay with U251 CNS, with NCI-H460 lung, in the assay on SF-268 CNS, in the assay with K-562 leukemia and with MOLT-4 leukemia was over 10 µM in each case. The GI50 in the assay on OVCAR-5 ovarian, in the assay on OVCAR-4 ovarian, in the assay with SF-539 CNS and in the assay with UO-31 renal was over 10 µM each time. Besides, the TGI in the assay on RPMI-8226 leukemia, with U251 CNS, in the assay on NCI-H460 lung, in the assay with SF-268 CNS, in the assay with K-562 leukemia and in the assay with MOLT-4 leukemia was over 10 µM throughout. The TGI in the assay on OVCAR-5 ovarian, in the assay on OVCAR-4 ovarian, with SF-539 CNS and in the assay on UO-31 renal was over 10 µM in each case.
In the case of `CN1CCN(C(=O)c2ccc(NC(=O)Nc3ccc(-c4nc(N5CCOCC5)c5cccn5n4)cc3)cc2)CC1`, the GI50 in the assay on RPMI-8226 leukemia is 0.287 µM; with U251 CNS, 0.0464 µM; in the assay on NCI-H460 lung, 0.0498 µM; in the assay with SF-268 CNS, 0.0399 µM; in the assay on K-562 leukemia it was 0.0963 µM; with MOLT-4 leukemia it was 0.0443 µM. Moreover, the GI50 was 0.0439 µM with OVCAR-5 ovarian, 0.0149 µM in the assay on OVCAR-4 ovarian, 0.0481 µM with SF-539 CNS and 0.304 µM in the assay on UO-31 renal. Besides, the TGI with RPMI-8226 leukemia came to 2.02 µM; in the assay with U251 CNS, 10.3 µM; with NCI-H460 lung, 12 µM; in the assay with SF-268 CNS, 12 µM; with K-562 leukemia it was 14.7 µM; in the assay with MOLT-4 leukemia it was 2.11 µM. Besides, the TGI with OVCAR-5 ovarian came to 12.8 µM; in the assay with OVCAR-4 ovarian, 0.095 µM; with SF-539 CNS it was 0.393 µM; in the assay on UO-31 renal, 5.82 µM.
As to `O=C1C(Cl)=C(Cl)C(=O)N1c1ccc(Cl)c(Cl)c1Cl`, the TGI is over 100 µM in the assay with RPMI-8226 leukemia; over 100 µM in the assay on U251 CNS; over 100 µM in the assay on NCI-H460 lung; over 100 µM in the assay on SF-268 CNS; 91.8 µM with K-562 leukemia; over 100 µM in the assay on MOLT-4 leukemia. Besides, the TGI in the assay with OVCAR-5 ovarian, in the assay on OVCAR-4 ovarian, in the assay on SF-539 CNS and with UO-31 renal was over 100 µM each time.
As for `CCN(CC)CCCNCc1cc(-c2ccccc2)nc2cc(Cl)ccc12`, the GI50 in the assay with RPMI-8226 leukemia is 2.46 µM; in the assay on U251 CNS, 2.39 µM; in the assay with NCI-H460 lung, 3.41 µM; in the assay on SF-268 CNS, 3.05 µM; in the assay on K-562 leukemia, 1.94 µM; in the assay with MOLT-4 leukemia, 2.12 µM. For the same molecule, the GI50 with OVCAR-5 ovarian is 7.83 µM; with OVCAR-4 ovarian, 7.1 µM; in the assay on SF-539 CNS, 1.02 µM; in the assay with UO-31 renal it was 1.78 µM. The TGI with RPMI-8226 leukemia came to 5.93 µM; with U251 CNS, 6.67 µM; with NCI-H460 lung, 11.2 µM; with SF-268 CNS, 12.9 µM; in the assay with K-562 leukemia it was 6.61 µM; with MOLT-4 leukemia, 5.46 µM. Besides, the TGI in the assay on OVCAR-5 ovarian worked out at 21.7 µM; with OVCAR-4 ovarian, 20.5 µM; in the assay with SF-539 CNS, 2.55 µM; in the assay on UO-31 renal, 11.5 µM.

By TGI is commonly meant the concentration at which net growth stops. A high value points to less potent growth arrest. For orientation: GI50 means the concentration giving 50% growth inhibition.
